Data as given in the supplement of paper PMC10307832.

What was measured:
Assay in all cases: relative viability (nuclei count vs DMSO), 5 days (fraction); higher = more cells survive
Zebularine + Crizotinib = compound: O=c1ncccn1[C@@H]1O[C@H](CO)[C@@H](O)[C@H]1O [Zebularine] + C[C@@H](Oc1cc(-c2cnn(C3CCNCC3)c2)cnc1N)c1c(Cl)ccc(F)c1Cl [Crizotinib] (partner 1 µM)
In short: (§1)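 Cells from lung cancer lines were seeded into 1536-well plates and, one day later, dosed by pin tool. Treatments were either a single drug or a fixed dose of an anchor drug with five library-drug doses (not always all listed) in √10 steps. After 5 days, nuclei were stained in a one-step fixation (final 0.05% Triton X-100, 1% formaldehyde, 1 ug/ml Hoechst) and counted on 4× images, and relative viability is the treated-to-vehicle nuclei ratio, as the median of duplicate plates.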

BI-D1870 + Olaparib = compound: CC(C)CCN1c2nc(Nc3cc(F)c(O)c(F)c3)ncc2N(C)C(=O)C1C [BI-D1870] + O=C(c1cc(Cc2n[nH]c(=O)c3ccccc23)ccc1F)N1CCN(C(=O)C2CC2)CC1 [Olaparib] (partner 8 µM)
In short: as §1

Zebularine + Foretinib = compound: O=c1ncccn1[C@@H]1O[C@H](CO)[C@@H](O)[C@H]1O [Zebularine] + COc1cc2c(Oc3ccc(NC(=O)C4(C(=O)Nc5ccc(F)cc5)CC4)cc3F)ccnc2cc1OCCCN1CCOCC1 [Foretinib] (partner 0.25 µM)
In short: as §1

BI-D1870 + AZD7762 = compound: CC(C)CCN1c2nc(Nc3cc(F)c(O)c(F)c3)ncc2N(C)C(=O)C1C [BI-D1870] + NC(=O)Nc1cc(-c2cccc(F)c2)sc1C(=O)N[C@H]1CCCNC1 [AZD7762] (partner 0.2 µM)
In short: as §1

Cell Line | relative viability (Zebularine + Crizotinib; first compound 1 µM) | relative viability (Zebularine + Crizotinib; first compound 3.162 µM) | relative viability (Zebularine + Crizotinib; first compound 10 µM) | relative viability (Zebularine + Crizotinib; first compound 31.62 µM) | relative viability (Zebularine + Crizotinib; first compound 100 µM) | relative viability (BI-D1870 + Olaparib; first compound 0.04 µM) | relative viability (BI-D1870 + Olaparib; first compound 0.1265 µM) | relative viability (BI-D1870 + Olaparib; first compound 0.4 µM) | relative viability (BI-D1870 + Olaparib; first compound 1.265 µM) | relative viability (BI-D1870 + Olaparib; first compound 4 µM) | relative viability (Zebularine + Foretinib; first compound 1 µM) | relative viability (Zebularine + Foretinib; first compound 3.162 µM) | relative viability (Zebularine + Foretinib; first compound 31.62 µM) | relative viability (Zebularine + Foretinib; first compound 100 µM) | relative viability (BI-D1870 + AZD7762; first compound 0.04 µM) | relative viability (BI-D1870 + AZD7762; first compound 0.1265 µM) | relative viability (BI-D1870 + AZD7762; first compound 0.4 µM) | relative viability (BI-D1870 + AZD7762; first compound 1.265 µM) | relative viability (BI-D1870 + AZD7762; first compound 4 µM) | relative viability (Zebularine + Foretinib; first compound 10 µM)
201T | 1.08 | 1.03 | 0.861 | 1.11 | 1.01 | 0.901 | 0.806 | 0.809 | 0.851 | 0.856 | 1.16 | 1.14 | 0.973 | 0.32 | 0.663 | 0.534 | 0.602 | 0.618 | 0.696 | –
A549 | 0.847 | 0.846 | 0.478 | 0.228 | 0.164 | 0.382 | 0.382 | 0.268 | 0.379 | 0.399 | 0.898 | 0.996 | 0.855 | 0.0887 | – | – | – | – | – | 0.743
A-427 | 1.21 | 0.795 | 0.624 | 0.345 | 0.188 | 0.71 | 0.647 | 0.659 | 0.705 | 0.551 | 1.22 | 0.965 | 0.468 | 0.232 | 0.86 | 0.717 | 0.848 | 1.01 | 0.796 | 0.579
ABC-1 | 1.04 | 1.01 | 0.812 | 0.779 | 0.565 | 0.751 | 0.782 | 1 | 0.613 | 0.666 | 1.16 | 1.11 | 0.783 | 0.473 | 0.805 | 0.82 | 0.796 | 0.791 | 0.895 | 0.681
BEN | 0.812 | 0.81 | 0.433 | 0.37 | 0.328 | 1.23 | 1 | 1.02 | 1.11 | 0.806 | 0.648 | 0.44 | 0.336 | 0.194 | 0.699 | 0.574 | 0.633 | 0.961 | 0.67 | 0.341
CAL-12T | 0.657 | 0.596 | – | 0.719 | 0.574 | 0.692 | 0.701 | 0.672 | 0.482 | 0.372 | 1.2 | 1.09 | 1.15 | 0.671 | 0.749 | 0.546 | 0.637 | 0.599 | 0.668 | 0.931
COR-L23 | 0.633 | 0.742 | 0.454 | 0.351 | 0.182 | 0.315 | 0.325 | 0.327 | 0.35 | 0.245 | 1.11 | 0.98 | 0.513 | 0.157 | – | – | – | – | – | 0.621
COR-L 105 | 1.07 | 0.785 | 0.503 | 0.718 | 0.729 | 0.79 | 0.533 | 0.713 | 0.687 | 0.678 | 1.02 | 0.938 | 1.33 | 0.91 | – | – | – | – | – | 0.755
Calu-6 | 0.902 | 0.77 | 0.556 | 0.447 | 0.211 | 0.658 | 0.534 | 0.479 | 0.359 | 0.254 | 0.959 | 0.84 | 0.798 | 0.275 | – | – | – | – | – | 0.702
ChaGo-K-1 | 1.09 | 1 | 0.603 | 0.406 | 0.39 | 0.451 | 0.379 | 0.414 | 0.412 | 0.303 | 0.939 | 0.824 | 0.252 | 0.203 | 0.956 | 0.81 | 0.89 | 0.911 | 0.834 | 0.337
EBC-1 | 0.191 | 0.18 | – | 0.187 | 0.189 | 0.738 | 0.581 | 0.574 | 0.337 | 0.183 | 0.102 | 0.105 | 0.0884 | 0.109 | – | – | – | – | – | 0.0888
EKVX | 1.11 | 0.87 | – | 0.896 | 1.11 | 0.916 | 0.789 | 0.805 | 0.969 | 0.721 | 0.893 | 0.624 | 0.753 | 0.75 | 0.632 | 0.72 | 0.61 | 0.742 | 0.701 | 0.731
EMC-BAC-2 | 0.795 | 0.67 | 0.689 | 0.777 | 0.824 | 0.513 | 0.451 | 0.453 | 0.512 | 0.455 | 1.09 | 1.02 | 1.04 | 1.03 | 1.21 | 1.11 | 1.05 | 1.38 | 1.02 | 0.856
EPLC-272H | 0.969 | – | – | 0.839 | 0.685 | 0.692 | 0.804 | 0.692 | 0.381 | 0.204 | 0.958 | 0.591 | 0.631 | 0.468 | 0.207 | 0.17 | 0.257 | 0.21 | 0.255 | 0.6
HCC-44 | 0.808 | 0.798 | 0.698 | 0.656 | 0.166 | 1 | 0.954 | 0.98 | 1.05 | 0.976 | – | – | – | – | 1.02 | 0.988 | 1 | 1.04 | 1.04 | –
